Assay results taken from patent publication US20240400564A1 (Syndax Pharmaceuticals, Inc, priority 2021, published 2024).

Target: hERG (Homo sapiens, UniProt Q12809)
Test: Patch clamp assay (hERG tail currents, whole-cell)

Sequence of hERG (Q12809 whole entry): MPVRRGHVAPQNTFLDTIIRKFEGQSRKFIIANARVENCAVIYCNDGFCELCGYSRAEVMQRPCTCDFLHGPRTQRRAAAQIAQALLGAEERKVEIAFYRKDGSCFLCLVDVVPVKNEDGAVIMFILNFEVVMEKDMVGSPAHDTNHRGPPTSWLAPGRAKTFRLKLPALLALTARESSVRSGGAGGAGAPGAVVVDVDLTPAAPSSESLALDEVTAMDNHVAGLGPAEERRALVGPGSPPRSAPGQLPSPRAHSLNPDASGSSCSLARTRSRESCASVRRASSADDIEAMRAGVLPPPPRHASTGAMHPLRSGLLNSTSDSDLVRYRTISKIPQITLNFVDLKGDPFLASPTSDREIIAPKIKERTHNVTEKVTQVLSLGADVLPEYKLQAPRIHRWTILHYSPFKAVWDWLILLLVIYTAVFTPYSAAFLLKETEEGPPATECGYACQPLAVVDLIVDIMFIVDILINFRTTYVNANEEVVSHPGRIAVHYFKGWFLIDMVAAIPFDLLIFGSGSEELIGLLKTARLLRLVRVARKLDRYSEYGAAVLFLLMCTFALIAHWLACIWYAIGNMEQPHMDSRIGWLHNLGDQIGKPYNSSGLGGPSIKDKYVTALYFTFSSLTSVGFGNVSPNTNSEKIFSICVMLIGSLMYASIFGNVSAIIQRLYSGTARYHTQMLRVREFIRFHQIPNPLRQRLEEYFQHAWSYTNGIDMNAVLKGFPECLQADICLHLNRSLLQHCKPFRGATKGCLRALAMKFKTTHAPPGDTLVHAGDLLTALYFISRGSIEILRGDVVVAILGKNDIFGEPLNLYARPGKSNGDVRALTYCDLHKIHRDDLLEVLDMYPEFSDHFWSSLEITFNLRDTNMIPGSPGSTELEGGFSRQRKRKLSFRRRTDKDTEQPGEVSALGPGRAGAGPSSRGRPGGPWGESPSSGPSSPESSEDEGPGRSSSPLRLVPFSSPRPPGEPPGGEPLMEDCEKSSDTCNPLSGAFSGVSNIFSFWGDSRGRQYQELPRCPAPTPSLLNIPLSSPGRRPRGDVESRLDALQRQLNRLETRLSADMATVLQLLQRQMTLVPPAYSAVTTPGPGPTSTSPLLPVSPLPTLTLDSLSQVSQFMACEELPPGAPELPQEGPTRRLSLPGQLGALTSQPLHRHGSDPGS

Row | Structure (SMILES) | hERG % Remaining (30 μM compound) | hERG % Remaining (100 μM compound) | hERG % Remaining (10 μM compound)
1 | CNS(=O)(=O)N[C@@H]1CC[C@@H](CN2CCC3(CC2)CN(c2ncncc2Oc2ccc(F)cc2C(=O)N(C(C)C)C(C)C)C3)OC1 [Example 143, 5-Fluoro-N,N-diisopropyl-2-((4-(7-(((2S,5R)-5-((N-methylsulfamoyl)amino)tetrahydro-2H-pyran-2-yl)methyl)-2,7-diazaspiro[3.5]nonan-2-5-yl)pyrimidin-5-yl)oxy)benzamide] | +++ (≥66%) | +++ (≥66%) | –
2 | CCNS(=O)(=O)N[C@@H]1CC[C@@H](CN2CCC3(CC2)CN(c2ncncc2Oc2ccc(F)cc2C(=O)N(C(C)C)C(C)C)C3)OC1 [Example 144, 2-((4-(7-(((2S,5R)-5-((N-Ethylsulfamoyl)amino)tetrahydro-2H-pyran-2-yl)methyl)-2,7-diazaspiro[3.5]nonan-2-yl)pyrimidin-5-yl)oxy)-5-fluoro-N,N-diisopropylbenzamide] | +++ (≥66%) | – | –
3 | CCNS(=O)(=O)N[C@@H]1CC[C@@H](CN2CCC3(CC2)CN(c2ncncc2Oc2ccc(F)cc2C(=O)N(C(C)C)C2CC2)C3)OC1 [Example 145, N-Cyclopropyl-2-((4-(7-(((2S,5R)-5-((N-ethylsulfamoyl)amino)tetrahydro-2H-pyran-2-yl)methyl)-2,7-diazaspiro[3.5]nonan-2-yl)pyrimidin-5-yl)oxy)-5-fluoro-N-isopropylbenzamide] | +++ (≥66%) | – | –
4 | CCNS(=O)(=O)N[C@@H]1CC[C@@H](CN2CCC3(CC2)CN(c2ncncc2Oc2ccc(F)cc2C(=O)N(CC(F)F)C(C)C)C3)OC1 [Example 147, N-(2,2-Difluoroethyl)-2-((4-(7-(((2S,5R)-5-((N-ethylsulfamoyl)amino)tetrahydro-2H-pyran-2-yl)methyl)-2,7-diazaspiro[3.5]nonan-2-yl)pyrimidin-5-yl)oxy)-5-fluoro-N-isopropylbenzamide] | +++ (≥66%) | – | +++ (≥66%)
5 | CC(C)N(CC(F)F)C(=O)c1cc(F)ccc1Oc1cncnc1N1CC2(CCN(C[C@@H]3CC[C@@H](NS(=O)(=O)NCC4CC4)CO3)CC2)C1 [Example 148, 2-((4-(7-(((2S,5R)-5-((N-(Cyclopropylmethyl)sulfamoyl)amino)tetrahydro-2H-pyran-2-yl)methyl)-2,7-diazaspiro[3.5]nonan-2-yl)pyrimidin-5-yl)oxy)-N-(2,2-difluoroethyl)-5-fluoro-N-isopropylbenzamide] | +++ (≥66%) | – | –
6 | CC(C)N(CC(F)F)C(=O)c1cc(F)ccc1Oc1cncnc1N1CC2(CCN(C[C@@H]3CC[C@@H](NS(=O)(=O)NC4CC4)CO3)CC2)C1 [Example 149, 2-((4-(7-(((2S,5R)-5-((N-Cyclopropylsulfamoyl)amino)tetrahydro-2H-pyran-2-yl)methyl)-2,7-diazaspiro[3.5]nonan-2-yl)pyrimidin-5-yl)oxy)-N-(2,2-difluoroethyl)-5-fluoro-N-isopropylbenzamide] | +++ (≥66%) | – | –
7 | CCNS(=O)(=O)N[C@@H]1CC[C@@H](CN2CCC3(CC2)CN(c2ncncc2Oc2ccc(F)cc2C(=O)N(CC(F)(F)F)C(C)C)C3)OC1 [Example 153, 2-((4-(7-(((2S,5R)-5-((N-Ethylsulfamoyl)amino)tetrahydro-2H-pyran-2-yl)methyl)-2,7-diazaspiro[3.5]nonan-2-yl)pyrimidin-5-yl)oxy)-5-fluoro-N-isopropyl-N-(2,2,2-trifluoroethyl)benzamide] | +++ (≥66%) | – | –
8 | CNS(=O)(=O)N[C@@H]1CC[C@@H](CN2CCC3(CC2)CN(c2ncncc2Oc2ccc(F)cc2C(=O)N(C(C)C)C2CC(F)(F)C2)C3)OC1 [Example 154, N-(3,3-Difluorocyclobutyl)-5-fluoro-N-isopropyl-2-((4-(7-(((2S,5R)-5-((N-methylsulfamoyl)amino)tetrahydro-2H-pyran-2-yl)methyl)-2,7-diazaspiro[3.5]nonan-2-yl)pyrimidin-5-yl)oxy)benzamide] | ++ (233% and ≤66%) | – | +++ (≥66%)
